Experimental data published in PubChem BioAssay (NCI).
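Interpolation was linear, between the two tested concentrations surrounding the appropriate level; five concentrations were tested over 48 hours in 96-well plates. TGI denotes the concentration required for complete inhibition of growth.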

Experiments:
Experiment in all cases: NCI tumour cell line growth inhibition, 48 h
MOLT-4 leukemia = test system: MOLT-4 leukemia
A498 renal = test system: A498 renal
HCC-2998 colon = test system: HCC-2998 colon
SK-OV-3 ovarian = test system: SK-OV-3 ovarian
SNB-78 CNS = test system: SNB-78 CNS
DMS 273 small cell lung = test system: DMS 273 small cell lung
SR leukemia = test system: SR leukemia
RPMI-8226 leukemia = test system: RPMI-8226 leukemia
UO-31 renal = test system: UO-31 renal
SN12C renal = test system: SN12C renal
M19-MEL melanoma = test system: M19-MEL melanoma
OVCAR-5 ovarian = test system: OVCAR-5 ovarian
HCT-116 colon = test system: HCT-116 colon
UACC-257 melanoma = test system: UACC-257 melanoma
HOP-18 NSCLC = test system: HOP-18 NSCLC
RXF 393 renal = test system: RXF 393 renal
RXF-631 renal = test system: RXF-631 renal
MALME-3M melanoma = test system: MALME-3M melanoma
LXFL 529 NSCLC = test system: LXFL 529 NSCLC
A549 NSCLC = test system: A549 NSCLC
HOP-62 NSCLC = test system: HOP-62 NSCLC
DMS 114 small cell lung = test system: DMS 114 small cell lung
SNB-75 CNS = test system: SNB-75 CNS
EKVX NSCLC = test system: EKVX NSCLC
786-0 renal = test system: 786-0 renal
M14 melanoma = test system: M14 melanoma
TK-10 renal = test system: TK-10 renal
U251 CNS = test system: U251 CNS
HOP-92 NSCLC = test system: HOP-92 NSCLC
K-562 leukemia = test system: K-562 leukemia
OVCAR-8 ovarian = test system: OVCAR-8 ovarian
HT29 colon = test system: HT29 colon
IGROV1 ovarian = test system: IGROV1 ovarian
HCT-15 colon = test system: HCT-15 colon
OVCAR-4 ovarian = test system: OVCAR-4 ovarian
UACC-62 melanoma = test system: UACC-62 melanoma
CCRF-CEM leukemia = test system: CCRF-CEM leukemia
NCI-H460 lung = test system: NCI-H460 lung
SK-MEL-2 melanoma = test system: SK-MEL-2 melanoma
SK-MEL-5 melanoma = test system: SK-MEL-5 melanoma
SNB-19 CNS = test system: SNB-19 CNS
SF-539 CNS = test system: SF-539 CNS
SF-268 CNS = test system: SF-268 CNS
ACHN renal = test system: ACHN renal
SF-295 CNS = test system: SF-295 CNS
KM20L2 colon = test system: KM20L2 colon
HL-60(TB) leukemia = test system: HL-60(TB) leukemia
CAKI-1 renal = test system: CAKI-1 renal
KM12 colon = test system: KM12 colon
SK-MEL-28 melanoma = test system: SK-MEL-28 melanoma
SW-620 colon = test system: SW-620 colon
NCI-H226 lung = test system: NCI-H226 lung
XF 498 CNS = test system: XF 498 CNS
NCI-H23 lung = test system: NCI-H23 lung
NCI-H522 lung = test system: NCI-H522 lung
OVCAR-3 ovarian = test system: OVCAR-3 ovarian
COLO 205 colon = test system: COLO 205 colon
DLD-1 colon = test system: DLD-1 colon
LOX IMVI melanoma = test system: LOX IMVI melanoma

`COc1cc(/C=N/c2nncs2)ccc1O` was tested, and the TGI (MOLT-4 leukemia) was over 100 µM, the TGI (A498 renal) was over 100 µM and the TGI (HCC-2998 colon) was over 100 µM. It also gave a TGI (SK-OV-3 ovarian) of over 100 µM, a TGI (SNB-78 CNS) of over 100 µM and a TGI (DMS 273 small cell lung) of over 100 µM. For the same compound, the TGI (SR leukemia) was over 100 µM, the TGI (RPMI-8226 leukemia) was over 100 µM and the TGI (UO-31 renal) was over 100 µM. For the same compound, the TGI (SN12C renal) was over 100 µM, the TGI (M19-MEL melanoma) was over 100 µM and the TGI (OVCAR-5 ovarian) was over 100 µM. It also gave a TGI (HCT-116 colon) of over 100 µM, a TGI (UACC-257 melanoma) of over 100 µM and a TGI (HOP-18 NSCLC) of over 100 µM. For the same compound, the TGI (RXF 393 renal) was over 100 µM, the TGI (RXF-631 renal) was over 100 µM and the TGI (MALME-3M melanoma) was over 100 µM. For the same compound, the TGI (LXFL 529 NSCLC) was over 100 µM, the TGI (A549 NSCLC) was over 100 µM and the TGI (HOP-62 NSCLC) was over 100 µM. The TGI (DMS 114 small cell lung) was over 100 µM, the TGI (SNB-75 CNS) was over 100 µM and the TGI (EKVX NSCLC) was over 100 µM. For the same compound, the TGI (786-0 renal) was over 100 µM, the TGI (M14 melanoma) was over 100 µM and the TGI (TK-10 renal) was over 100 µM. It also gave a TGI (U251 CNS) of over 100 µM, a TGI (HOP-92 NSCLC) of over 100 µM and a TGI (K-562 leukemia) of over 100 µM. It also gave a TGI (OVCAR-8 ovarian) of over 100 µM, a TGI (HT29 colon) of over 100 µM and a TGI (IGROV1 ovarian) of over 100 µM. It also gave a TGI (HCT-15 colon) of over 100 µM, a TGI (OVCAR-4 ovarian) of over 100 µM and a TGI (UACC-62 melanoma) of over 100 µM. It also gave a TGI (CCRF-CEM leukemia) of over 100 µM, a TGI (NCI-H460 lung) of over 100 µM and a TGI (SK-MEL-2 melanoma) of over 100 µM. For the same compound, the TGI (SK-MEL-5 melanoma) was over 100 µM, the TGI (SNB-19 CNS) was over 100 µM and the TGI (SF-539 CNS) was over 100 µM. For the same compound, the TGI (SF-268 CNS) was over 100 µM, the TGI (ACHN renal) was over 100 µM and the TGI (SF-295 CNS) was over 100 µM. For the same compound, the TGI (KM20L2 colon) was over 100 µM, the TGI (HL-60(TB) leukemia) was over 100 µM and the TGI (CAKI-1 renal) was over 100 µM. It also gave a TGI (KM12 colon) of over 100 µM, a TGI (SK-MEL-28 melanoma) of over 100 µM and a TGI (SW-620 colon) of over 100 µM. The TGI (NCI-H226 lung) was over 100 µM, the TGI (XF 498 CNS) was over 100 µM and the TGI (NCI-H23 lung) was over 100 µM.

With `COc1cccc(C2C(C(=O)O)=C(CO)Oc3cc4c(cc32)OCO4)c1OC` (stereo not drawn) the TGI (MOLT-4 leukemia) was over 100 µM, the TGI (A498 renal) was over 100 µM and the TGI (SK-OV-3 ovarian) was over 100 µM. For the same compound, the TGI (SNB-78 CNS) was over 100 µM, the TGI (RPMI-8226 leukemia) was over 100 µM and the TGI (UO-31 renal) was over 100 µM. The TGI (SN12C renal) was over 100 µM, the TGI (NCI-H522 lung) was over 100 µM and the TGI (OVCAR-3 ovarian) was over 100 µM. For the same compound, the TGI (COLO 205 colon) was over 100 µM, the TGI (M19-MEL melanoma) was over 100 µM and the TGI (HOP-18 NSCLC) was over 100 µM. The TGI (RXF-631 renal) was over 100 µM, the TGI (MALME-3M melanoma) was over 100 µM and the TGI (LXFL 529 NSCLC) was over 100 µM. The TGI (SNB-75 CNS) was over 100 µM, the TGI (EKVX NSCLC) was over 100 µM and the TGI (M14 melanoma) was over 100 µM. For the same compound, the TGI (TK-10 renal) was over 100 µM, the TGI (U251 CNS) was over 100 µM and the TGI (HOP-92 NSCLC) was over 100 µM. For the same compound, the TGI (K-562 leukemia) was over 100 µM, the TGI (OVCAR-8 ovarian) was over 100 µM and the TGI (IGROV1 ovarian) was over 100 µM. The TGI (HCT-15 colon) was over 100 µM, the TGI (UACC-62 melanoma) was over 100 µM and the TGI (CCRF-CEM leukemia) was over 100 µM. It also gave a TGI (NCI-H460 lung) of over 100 µM, a TGI (DLD-1 colon) of over 100 µM and a TGI (SK-MEL-2 melanoma) of over 100 µM. For the same compound, the TGI (SK-MEL-5 melanoma) was over 100 µM, the TGI (SNB-19 CNS) was over 100 µM and the TGI (SF-539 CNS) was over 100 µM. It also gave a TGI (SF-268 CNS) of over 100 µM, a TGI (ACHN renal) of over 100 µM and a TGI (SF-295 CNS) of over 100 µM. For the same compound, the TGI (KM20L2 colon) was over 100 µM, the TGI (HL-60(TB) leukemia) was over 100 µM and the TGI (LOX IMVI melanoma) was over 100 µM. For the same compound, the TGI (CAKI-1 renal) was over 100 µM, the TGI (SK-MEL-28 melanoma) was over 100 µM and the TGI (SW-620 colon) was over 100 µM. For the same compound, the TGI (NCI-H226 lung) was over 100 µM, the TGI (XF 498 CNS) was 94.7 µM and the TGI (NCI-H23 lung) was over 100 µM.

Compound `COc1ccc(/C(=N\N=C(N)N)C(c2ccc(OC)cc2)C2OC(=O)c3ccccc32)cc1` (stereo not drawn) has a TGI (MOLT-4 leukemia) of over 100 µM, a TGI (HCC-2998 colon) of over 100 µM and a TGI (SK-OV-3 ovarian) of over 100 µM. The TGI (SNB-78 CNS) was over 100 µM, the TGI (DMS 273 small cell lung) was over 100 µM and the TGI (SR leukemia) was over 100 µM. For the same compound, the TGI (RPMI-8226 leukemia) was over 100 µM, the TGI (UO-31 renal) was over 100 µM and the TGI (SN12C renal) was over 100 µM. The TGI (NCI-H522 lung) was over 100 µM, the TGI (OVCAR-3 ovarian) was over 100 µM and the TGI (COLO 205 colon) was over 100 µM. The TGI (M19-MEL melanoma) was over 100 µM, the TGI (OVCAR-5 ovarian) was over 100 µM and the TGI (HCT-116 colon) was over 100 µM. It also gave a TGI (UACC-257 melanoma) of over 100 µM, a TGI (RXF 393 renal) of over 100 µM and a TGI (RXF-631 renal) of over 100 µM. It also gave a TGI (MALME-3M melanoma) of over 100 µM, a TGI (LXFL 529 NSCLC) of over 100 µM and a TGI (A549 NSCLC) of over 100 µM. The TGI (HOP-62 NSCLC) was over 100 µM, the TGI (DMS 114 small cell lung) was over 100 µM and the TGI (SNB-75 CNS) was over 100 µM. It also gave a TGI (786-0 renal) of over 100 µM, a TGI (M14 melanoma) of over 100 µM and a TGI (U251 CNS) of over 100 µM. It also gave a TGI (HOP-92 NSCLC) of over 100 µM, a TGI (K-562 leukemia) of over 100 µM and a TGI (OVCAR-8 ovarian) of over 100 µM. The TGI (HT29 colon) was over 100 µM, the TGI (IGROV1 ovarian) was over 100 µM and the TGI (HCT-15 colon) was over 100 µM. For the same compound, the TGI (OVCAR-4 ovarian) was over 100 µM, the TGI (UACC-62 melanoma) was over 100 µM and the TGI (CCRF-CEM leukemia) was over 100 µM. The TGI (NCI-H460 lung) was over 100 µM, the TGI (DLD-1 colon) was over 100 µM and the TGI (SK-MEL-5 melanoma) was over 100 µM. For the same compound, the TGI (SNB-19 CNS) was over 100 µM, the TGI (SF-539 CNS) was over 100 µM and the TGI (SF-268 CNS) was over 100 µM. The TGI (ACHN renal) was over 100 µM, the TGI (SF-295 CNS) was over 100 µM and the TGI (KM20L2 colon) was over 100 µM. It also gave a TGI (HL-60(TB) leukemia) of over 100 µM, a TGI (LOX IMVI melanoma) of over 100 µM and a TGI (CAKI-1 renal) of over 100 µM. The TGI (KM12 colon) was over 100 µM, the TGI (SK-MEL-28 melanoma) was over 100 µM and the TGI (SW-620 colon) was over 100 µM. It also gave a TGI (NCI-H226 lung) of over 100 µM, a TGI (XF 498 CNS) of over 100 µM and a TGI (NCI-H23 lung) of over 100 µM.
